{
  "source": "patent US8815261B2",
  "about": "(priority 2009, dated 2014)",
  "origin": "cited, not measured here",
  "note": "Read-outs that look alike come from different tables or passages of the source.",
  "data": [
    {"molecule": "O=S(=O)(O)c1ccccc1", "note": "[benzenesulfonic acid]", "values": [
      {"measurement": "logP calculated value of organic acid", "setting": "PubChem value, as in Example 2 (Table 4)", "result": 0}
    ]},
    {"molecule": "CC(=O)CCC(=O)O", "note": "[levulinic acid]", "values": [
      {"measurement": "logP calculated value of organic acid", "setting": "PubChem value (revised on February, 2009)", "result": "−0.5"}
    ]}
  ]
}
